Assay results: patent US7642245B2, “Antibacterial compounds having a (pyrrole carboxamide)-(benzamide)-(imidazole carboxamide) motif” (Oscient Pharmaceuticals Corporation, priority 2002, dated 2010)

Experiments:
[1] = tested on: M. catarrhalis (ATCC 25238); test: MIC, NCCLS broth microdilution; assay type: cell-based, Moraxella (now Branhamella) catarrhalis; conditions: H = M. catarrhalis (ATCC 25238)
Outline: (§1)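 Antibacterial MICs against B. cereus, methicillin-resistant S. aureus and M. catarrhalis were measured by the NCCLS reference broth microdilution method. Yeast testing applied the Manual of Clinical Microbiology antifungal protocol.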

S. pneumoniae ATCC 49619 = test: MIC, NCCLS broth microdilution; assay type: cell-based, Streptococcus pneumoniae; conditions: E = S. pneumoniae ATCC 49619
Outline: (§2)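 Broth microdilution MIC per NCCLS M7-A4 and M11-A4 for bacteria (MRSA strain for S. aureus ATCC 27660); antifungal MIC per NCCLS M27-T with the Murray 1995 Manual of Clinical Microbiology method. MIC taken as lowest inhibitory concentration.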

E. coli ATCC 25922 = test: MIC, NCCLS broth microdilution; assay type: cell-based, Escherichia coli; conditions: G = E. coli ATCC 25922
Outline: as §2

S. aureus ATCC 13709 = test: MIC, NCCLS broth microdilution; assay type: cell-based, Staphylococcus aureus; conditions: A = S. aureus ATCC 13709 (MSSA)
Outline: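 MIC values come from microtiter-plate broth microdilution run to NCCLS standards (M7-A4, M11-A4, M27-T). For C. albicans ATCC 38247, the antifungal procedure of the 1995 Manual of Clinical Microbiology was used instead.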

S. aureus ATCC 27660 = test: MIC, NCCLS broth microdilution; assay type: cell-based, Staphylococcus aureus; conditions: B = S. aureus ATCC 27660 (MRSA)
Outline: as §1

B. cereus ATCC 11778 = test: MIC, NCCLS broth microdilution; assay type: cell-based, Bacillus cereus; conditions: D = B. cereus ATCC 11778
Outline: as §1

C. albicans ATCC 38247 = test: MIC, antifungal assay; assay type: cell-based, Candida albicans; conditions: F = C. albicans ATCC 38247
Outline: as §1

E. faecalis ATCC 29212 = test: MIC, NCCLS broth microdilution; assay type: cell-based, Enterococcus faecalis; conditions: C = E. faecalis ATCC 29212
Outline: as §2

SMILES	Minimum Inhibitory Concentration (MIC) [1]	Minimum Inhibitory Concentration (MIC) (S. pneumoniae ATCC 49619)	Minimum Inhibitory Concentration (MIC) (E. coli ATCC 25922)	Minimum Inhibitory Concentration (MIC) (S. aureus ATCC 13709)	Minimum Inhibitory Concentration (MIC) (S. aureus ATCC 27660)	Minimum Inhibitory Concentration (MIC) (B. cereus ATCC 11778)	Minimum Inhibitory Concentration (MIC) (C. albicans ATCC 38247)	Minimum Inhibitory Concentration (MIC) (E. faecalis ATCC 29212)
Cn1cc(NC(=O)c2cc3ccccc3cn2)cc1C(=O)Nc1ccc(C(=O)Nc2cn(C)c(C(=O)NCCNCCO)n2)cc1 [Compound A-45]	+ (12 ≦ MIC ≦ 32 μg/mL)	+++ (MIC ≦ 4 μg/mL)	>32 µg/mL	+++ (MIC ≦ 4 μg/mL)	+++ (MIC ≦ 4 μg/mL)	+++ (MIC ≦ 4 μg/mL)	>32 µg/mL	+++ (MIC ≦ 4 μg/mL)
CC(C)C(CO)NCCNC(=O)c1nc(NC(=O)c2ccc(NC(=O)c3cc(NC(=O)c4cc5ccccc5cn4)cn3C)cc2)cn1C (stereo not drawn) [Compound A-46]	++ (4 < MIC < 12 μg/mL)	+++ (MIC ≦ 4 μg/mL)	>32 µg/mL	+++ (MIC ≦ 4 μg/mL)	+++ (MIC ≦ 4 μg/mL)	+++ (MIC ≦ 4 μg/mL)	>32 µg/mL	+++ (MIC ≦ 4 μg/mL)
Cn1cc(NC(=O)c2cc3ccccc3cn2)cc1C(=O)Nc1ccc(C(=O)Nc2cn(C)c(C(=O)NCCN3CCNCC3)n2)cc1 [Compound A-47]	+++ (MIC ≦ 4 μg/mL)	+++ (MIC ≦ 4 μg/mL)	>32 µg/mL	+++ (MIC ≦ 4 μg/mL)	+++ (MIC ≦ 4 μg/mL)	+++ (MIC ≦ 4 μg/mL)	+ (12 ≦ MIC ≦ 32 μg/mL)	+++ (MIC ≦ 4 μg/mL)
CCOC(=O)C1CCN(CCNC(=O)c2nc(NC(=O)c3ccc(NC(=O)c4cc(NC(=O)c5cc6ccccc6cn5)cn4C)cc3)cn2C)CC1 [Compound A-48]	+++ (MIC ≦ 4 μg/mL)	+++ (MIC ≦ 4 μg/mL)	>32 µg/mL	+++ (MIC ≦ 4 μg/mL)	+++ (MIC ≦ 4 μg/mL)	+++ (MIC ≦ 4 μg/mL)	>32 µg/mL	+++ (MIC ≦ 4 μg/mL)
Cn1cc(NC(=O)c2cc3ccccc3cn2)cc1C(=O)Nc1ccc(C(=O)Nc2cn(C)c(C(=O)NCCNC(CO)(CO)CO)n2)cc1 [Compound A-49]	>32 µg/mL	+++ (MIC ≦ 4 μg/mL)	>32 µg/mL	+++ (MIC ≦ 4 μg/mL)	+++ (MIC ≦ 4 μg/mL)	>32 µg/mL	>32 µg/mL	+ (12 ≦ MIC ≦ 32 μg/mL)
Cn1cc(NC(=O)c2cc3ccccc3cn2)cc1C(=O)Nc1ccc(C(=O)Nc2cn(C)c(C(=O)NCCNC(CO)CO)n2)cc1 [Compound A-50]	>32 µg/mL	+++ (MIC ≦ 4 μg/mL)	>32 µg/mL	+++ (MIC ≦ 4 μg/mL)	+++ (MIC ≦ 4 μg/mL)	+ (12 ≦ MIC ≦ 32 μg/mL)	>32 µg/mL	++ (4 < MIC < 12 μg/mL)
C[C@@H]1CN(CCNC(=O)c2nc(NC(=O)c3ccc(NC(=O)c4cc(NC(=O)c5cc6ccccc6cn5)cn4C)cc3)cn2C)C[C@H](C)O1 [Compound A-51]	+++ (MIC ≦ 4 μg/mL)	+++ (MIC ≦ 4 μg/mL)	>32 µg/mL	+++ (MIC ≦ 4 μg/mL)	+++ (MIC ≦ 4 μg/mL)	+++ (MIC ≦ 4 μg/mL)	>32 µg/mL	+++ (MIC ≦ 4 μg/mL)
CC(C)N1CCN(CCC(=O)OC2CCN(CCNC(=O)c3nc(NC(=O)c4ccc(NC(=O)c5cc(NC(=O)c6cc7ccccc7cn6)cn5C)cc4)cn3C)CC2)CC1 [Compound A-53]	+++ (MIC ≦ 4 μg/mL)	+++ (MIC ≦ 4 μg/mL)	>32 µg/mL	+++ (MIC ≦ 4 μg/mL)	+++ (MIC ≦ 4 μg/mL)	+++ (MIC ≦ 4 μg/mL)	>32 µg/mL	+++ (MIC ≦ 4 μg/mL)
Cn1cc(NC(=O)c2cc3ccccc3cn2)cc1C(=O)Nc1ccc(C(=O)Nc2cn(C)c(C(=O)NCCN(CCO)CCO)n2)cc1 [Compound A-54]	>32 µg/mL	+++ (MIC ≦ 4 μg/mL)	>32 µg/mL	+++ (MIC ≦ 4 μg/mL)	+++ (MIC ≦ 4 μg/mL)	+++ (MIC ≦ 4 μg/mL)	>32 µg/mL	+++ (MIC ≦ 4 μg/mL)
Cn1cc(NC(=O)c2cc3ccccc3cn2)cc1C(=O)Nc1ccc(C(=O)Nc2cn(C)c(C(=O)NCCN3CCN(C(=O)OC(C)(C)C)CC3)n2)cc1 [Compound A-55]	+ (12 ≦ MIC ≦ 32 μg/mL)	+++ (MIC ≦ 4 μg/mL)	>32 µg/mL	+++ (MIC ≦ 4 μg/mL)	+++ (MIC ≦ 4 μg/mL)	+++ (MIC ≦ 4 μg/mL)	>32 µg/mL	+++ (MIC ≦ 4 μg/mL)
Cn1cc(NC(=O)c2cc3ccccc3cn2)cc1C(=O)Nc1ccc(C(=O)Nc2cn(C)c(C(=O)NCCN3CCN(S(C)(=O)=O)CC3)n2)cc1 [Compound A-56]	+++ (MIC ≦ 4 μg/mL)	+++ (MIC ≦ 4 μg/mL)	>32 µg/mL	+++ (MIC ≦ 4 μg/mL)	+++ (MIC ≦ 4 μg/mL)	+++ (MIC ≦ 4 μg/mL)	>32 µg/mL	+++ (MIC ≦ 4 μg/mL)
Cn1cc(NC(=O)c2cc3ccccc3cn2)cc1C(=O)Nc1ccc(C(=O)Nc2cn(C)c(C(=O)NCCN3CCC(OC(=O)CCN(CCO)CCO)CC3)n2)cc1 [Compound A-57]	+++ (MIC ≦ 4 μg/mL)	+++ (MIC ≦ 4 μg/mL)	++ (4 < MIC < 12 μg/mL)	+++ (MIC ≦ 4 μg/mL)	+++ (MIC ≦ 4 μg/mL)	+++ (MIC ≦ 4 μg/mL)	>32 µg/mL	+++ (MIC ≦ 4 μg/mL)
Cn1cc(NC(=O)c2cc3ccccc3cn2)cc1C(=O)Nc1ccc(C(=O)Nc2cn(C)c(C(=O)NCCN3CCN(CC#N)CC3)n2)cc1 [Compound A-58]	+++ (MIC ≦ 4 μg/mL)	+++ (MIC ≦ 4 μg/mL)	>32 µg/mL	+++ (MIC ≦ 4 μg/mL)	+++ (MIC ≦ 4 μg/mL)	+++ (MIC ≦ 4 μg/mL)	>32 µg/mL	+++ (MIC ≦ 4 μg/mL)
Cn1cc(NC(=O)c2cc3ccccc3cn2)cc1C(=O)Nc1ccc(C(=O)Nc2cn(C)c(C(=O)NCCN3CCC(OC(=O)CCN4CCOCC4)CC3)n2)cc1 [Compound A-59]	+++ (MIC ≦ 4 μg/mL)	+++ (MIC ≦ 4 μg/mL)	>32 µg/mL	+++ (MIC ≦ 4 μg/mL)	+++ (MIC ≦ 4 μg/mL)	+++ (MIC ≦ 4 μg/mL)	>32 µg/mL	+++ (MIC ≦ 4 μg/mL)
Cn1cc(NC(=O)c2cc3ccccc3cn2)cc1C(=O)Nc1ccc(C(=O)Nc2cn(C)c(C(=O)NCCN3CCC(OC(=O)CCN)CC3)n2)cc1 [Compound A-60]	++ (4 < MIC < 12 μg/mL)	+++ (MIC ≦ 4 μg/mL)	>32 µg/mL	+++ (MIC ≦ 4 μg/mL)	+++ (MIC ≦ 4 μg/mL)	+++ (MIC ≦ 4 μg/mL)	++ (4 < MIC < 12 μg/mL)	+++ (MIC ≦ 4 μg/mL)
